Patent US20070174926A1, “Sperm factor oscillogenin” (priority 2000, published 2007)
“Also recorded” adds a separate entry of the source. Marks after values point to notes of the source that are not given here.

Assays:
[1] = tested on: IP3R; settings: full IP3R agonist; cited from earlier work
[2] = tested on: IP3R-1; assay: Western blot quantification of IP3R-1 immunoreactivity in mouse eggs; format: cell-based; settings: for IP3R-1 down-regulation (degradation): activation started 16 hr phCG, band intensity relative to MII eggs
Excerpt: (§1) Several commonly used parthenogenetic agents were used during the course of these studies, including ethanol and ionomycin, which induce a single [Ca^2+]i rise (Cuthbertson, J. Exp. Zool. 226: 311-14 (1983); and Shiina et al., J. Reprod. Fert 97: 143-50 (1993)), and others such as adenophostin A, SF, thimerosal, and SrCl2 that evoke [Ca^2+]i oscillations (Kline et al., Dev. Biol. 149: 80-9 (1992); Swann, Biochem J. 287: 79-84 (1992); and Sato et al., Biol. Reprod. 58: 867-73 (1998)). The activating compounds were either injected into eggs (e.g., adenophostin A and SF, see microinjection procedures for details) or added to the eggs' culture media (e.g., thimerosal, SrCl2). Activation was started in all cases at 16 hr post hCG administration (phCG) and eggs evaluated visually 2 hr later by observing second polar body extrusion (18 hr phCG) and 5 hr post-treatment by evaluation of pronuclear formation. After the activation procedure and the assigned incubation period (1, 2, 4 or 8 hr), eggs were collected in 5 μl Dulbecco's phosphate buffered solution (DPBS)/polyvinylpyrrolidone (3 mg/ml, PVP) and stored at −80° C.
(§2) Ethanol activation was carried out by exposing eggs to a 7% ethanol solution in TL-Hepes plus 3 mg/ml bovine serum albumin (BSA) for 5 min at 37° C. After the treatment, eggs were washed several times in TL-Hepes, and cultured for 8 hr (24 hr-phCG). Activation with ionomycin and 6-dimethylaminopurine (DMAP), a kinase inhibitor (Susko-Parrish et al., Dev. Biol. 166: 729-39 (1994)) was accomplished by incubating eggs with 5 μM ionomycin for 5 min in Ca^2+ free-DPBS plus 3 mg/ml BSA. Eggs were then washed in TL-Hepes/1 mg/ml BSA, placed in DMAP/KSOM (2 mM) for 4 hr and cultured for 4 hr after carefuilly washing them free of DMAP. Eggs activated with SrCl2 were incubated for 2 or 4 hr in a Ca^2+-free M-16-like medium supplemented with 10 mM SrCl2. The treated eggs were then washed in TL-Hepes supplemented with 5% FCS and cultured for 2, 4 or 6 hr, depending on the experiment. For thimerosal activation, eggs were exposed to freshly made solutions of 200 μM thimerosal in KSOM for 30 min. Thimerosal-treated eggs were washed free of the reagent using TL-Hepes supplemented with 5% FCS and incubated for 30 min, 1.5, 3.5 or 7.5 hr.
Lactacystin (100 μM; Calbiochem, La Jolla, Calif.), a proteasome inhibitor (Mellgren, J. Biol. Chem. 272: 29899-903 (1997); and Fenteany et al., J. Biol. Chem. 273: 8545-48 (1998)), was used to determine if the proteasome was involved in down-regulation of the IP3R-1 by SF. Eggs were incubated in the inhibitor for 30 min. prior to injections, and injections of SF were carried out in the presence of the inhibitor. Eggs were then cultured in a new drop of KSOM freshly supplemented with lactacystin for 2 hr.
Equal volumes of crude lysates from 15 or 20 mouse eggs and double strength sample buffer (Laemmli, Nature 227: 680-5 (1970)) were combined as previously described (He et al., Biol. Reprod. 57: 1245-55 (1997)). Samples were boiled for 3 min and loaded into a 4% SDS-polyacrylamide gels. The separated proteins were transferred onto nitrocellulose membranes (Micron Separation; Westboro, Mass.) using a Mini Trans Blot Cell (Bio-Rad; Hercules, Calif.) for 2 hr at 4° C. The membranes were first washed in PBS and 0.05% Tween (PBS-T) and then blocked in 6% nonfat dry milk in PBS-T for 1 hr. […]

[3] = tested on: mouse eggs; assay: [Ca2+]i monitoring in fura-2 D loaded mouse eggs after agonist injection or exposure; format: cell-based; settings: for Frequency of [Ca2+]i rises, in words: SF and adenophostin A compared with fertilization, p<0.05; for Amplitude of 1st rise / Amplitude of 3rd rise: [Ca2+]i; for Amplitude of 1st rise / Amplitude of 3rd rise / # of rises in 5 min / Duration of 1st rise / Duration of 3rd rise: mean ± SEM; for # of rises in 5 min: frequency during 5 min after return of first rise to baseline (Adenophostin A, SF) or after addition (SrCl2, thimerosal)
Procedure: Microinjection procedures were carried out as previously described (Wu et al., Dev. Biol. 203: 369-81 (1998)). Briefly, eggs were placed in a 50 μl microdrop of TL-Hepes supplemented with 2.5% sucrose and 20% FCS under paraffin oil and injected using manipulators (Narishige, Medical Systems Corp., Great Neck, N.Y.) mounted on a Nikon Diaphot microscope (Nikon, Inc., Garden City, N.Y.). Injection pipettes were loaded by suction from a 2-3 μl drop containing one of the following compounds: 0.5 mM fura-2 dextran (fura-2 D; […] K. Tanzawa, Sankyo Colo., Tokyo, Japan). All reagents were diluted in buffer containing 75 mM KCl and 20 mM HEPES, pH 7.0 and were delivered into the ooplasm by pneumatic pressure using a PLI-100 picoinjector (Medical Systems Corp.). […] Wu et al., 1998), and 100 nM for adenophostin A. […] Exp. Zool. 226: 311-14 (1983); and […] et al., J. Reprod. […] Swann, Biochem J. 287: 79-84 (1992); and Sato et al., Biol. Reprod. 58: 867-73 (1998)). […] Activation was started in all cases at 16 hr post hCG administration (phCG) and eggs evaluated visually 2 hr later by observing second polar body extrusion (18 hr phCG) and 5 hr post-treatment by evaluation of pronuclear formation. After the activation procedure and the assigned incubation period (1, 2, 4 or 8 hr), eggs were collected in 5 μl Dulbecco's phosphate buffered solution (DPBS)/polyvinylpyrrolidone (3 mg/ml, PVP) and stored at -80° C. […] Ethanol activation was carried out by exposing eggs to a 7% ethanol solution in TL-Hepes plus 3 mg/ml bovine serum albumin (BSA) for 5 min at 37° C. After the treatment, eggs were washed several times in TL-Hepes, and cultured for 8 hr (24 hr-phCG). […] Biol. 166: 729-39 (1994)) was accomplished by incubating eggs with 5 μM ionomycin for 5 min in Ca^2+ free-DPBS plus 3 mg/ml BSA. Eggs were then washed in TL-Hepes/1 mg/ml BSA, placed in DMAP/KSOM (2 mM) for 4 hr and cultured for 4 hr after carefuilly washing them free of DMAP. Eggs activated with SrCl2 were incubated for 2 or 4 hr in a Ca^2+-free M-16-like medium supplemented with 10 mM SrCl2. The treated eggs were then washed in TL-Hepes supplemented with 5% FCS and cultured for 2, 4 or 6 hr, depending on the experiment. […] Fluorescence Recordings and [Ca^2+]i Determinations Monitoring of [Ca^2+]i levels using fura-2 D loaded eggs was carried out as previously described (Wu et al., 1998). UV illumination was provided by a 75 watt xenon arc lamp, and 340 and 380 nm excitation wavelengths were utilized. The intensity of the UV light was attenuated 32-fold with neutral density filters, and a photomultiplier tube quantified the emitted light after passing through a 500 nm barrier filter. The fluorescence signal was averaged for the whole egg. A modified Phoscan 3.0 software program run on a 486 IBM-compatible system controlled the rotation of the filter wheel and shutter apparatus to alternate wavelengths. Free [Ca^2+]i was determined from the 340 nm/380 nm ratio of fluorescence. Rmin and Rmax were calculated using […] fura-2 D in Ca^2+-free DPBS supplemented with 2 mM EDTA (Rmin) or 2 mM CaCl2 (Rmax) and with 60% sucrose to correct for intracellular viscosity (Grynkiewicz et al., J. Biol. Chem. 260: 3440-50 (1985); and Poenie, Cell Calcium 11: 85-91 (1990)). The same solutions were also used alone for background subtractions. Ca^2+ measurements carried out in the presence of extracellular SrCl2 are presented as fluorescence ratios of the 340 nm/380 nm excitation wavelengths. Calculations of the [Ca^2+]i concentration was in this case not performed, since fura-2 has also some affinity for Sr^2+. The presence of intracellular Sr^2+ therefore interferes and prevents obtaining […] and/or Sr2+ intracellular concentrations (Hajnoczky et al., EMBO J., 16: 3533-43 (1997)). Eggs were measured individually in 35 μl drops of TL-Hepes medium placed on a glass coverslip on the bottom of a plastic culture dish under paraffin oil. […]

[4] = tested on: mouse eggs; assay: Parthenogenetic activation of mouse eggs (second polar body extrusion, pronuclear formation); format: cell-based; settings: for Egg activation: result in words
Excerpt: as §1
as §2, with “For thimerosal activation, eggs were exposed to freshly made solutions of 200 μM thimerosal in KSOM for 30 min. Thimerosal-treated eggs were washed free of the reagent using TL-Hepes supplemented with 5% FCS and incubated for 30 min, 1.5, 3.5 or 7.5 hr.” left out

SMILES | Potency relative to IP3 [1] | IP3R-1 down-regulation (degradation) [2] | Frequency of [Ca2+]i rises, in words [3] | Amplitude of 1st rise [3] | Amplitude of 3rd rise [3] | # of rises in 5 min [3] | Duration of 1st rise [3] | Duration of 3rd rise [3] | Egg activation [4] | Cell cycle progression assessed by extrusion of the polar body in SF-injected eggs ([4]; eggs pretreated and incubated with inhibitor, not shown) | Effect on SF-induced degradation of IP3R-1 ([2]; 100 μM inhibitor, 30 min preincubation, 2 hr after SF injection)
Nc1ncnc2c1ncn2[C@@H]1O[C@H](CO)[C@@H](O[C@H]2O[C@H](CO)[C@@H](OP(=O)(O)O)[C@H](OP(=O)(O)O)[C@H]2O)[C@H]1OP(=O)(O)O [Adenophostin A, adenophostin A] | approximately 100 fold | significant down-regulation; also recorded: near total down-regulation | higher frequency | 620 ± 30^a, b nM | 530 ± 100^a nM | 3.9 ± 1.5^a*,* | 260 ± 65^a sec | 70 ± 22^a sec | – | – | –
[Cl-].[Cl-].[Sr+2] [SrCl2] | – | failed to induce any changes | lower frequency | – | – | 1 ± 0.0^b | 740 ± 290^b sec | 360 ± 70^b sec | high rates of egg activation | – | –
C[CH2][Hg][S]c1ccccc1C(=O)[O-].[Na+] [Thimerosal, thimerosal] | – | rapid and sustained down-regulation | low frequency | 330 ± 30^b nM | 640 ± 90^a nM | 1 ± 0.4^b | 180 ± 44^a sec | 70 ± 16^a sec | – | – | –
CCO [ethanol] | – | does not induce down regulation of IP3R-1 | – | – | – | – | – | – | high rates of activation | – | –
CC(=O)N[C@@H](CSC(=O)[C@]1([C@@H](O)C(C)C)NC(=O)[C@H](C)[C@@H]1O)C(=O)O [lactacystin] | – | – | – | – | – | – | – | – | – | clearly delayed | markedly inhibited
